Measured values from BigSolDB 2.1.

Q: For `CCOc1ccc(OCC)cc1`, which solubility (mole fraction) (in 2-butanone, 278.15 K) is on record?
A: 0.077

Q: And the solubility (mole fraction) (in 2-butanone, 283.15 K)?
A: 0.0958

Q: And the solubility (mole fraction) (in 2-butanone, 288.15 K)?
A: 0.113

Q: What about the solubility (mole fraction) (in 2-butanone, 293.15 K) of the same compound?
A: 0.136

Q: What about the solubility (mole fraction) (in 2-butanone, 298.15 K) of the same compound?
A: 0.169

Q: What about the solubility (mole fraction) (in 2-butanone, 303.15 K) of the same compound?
A: 0.204

Q: What about the solubility (mole fraction) (in 2-butanone, 308.15 K) of the same compound?
A: 0.257

Q: And the solubility (mole fraction) (in 2-butanone, 313.15 K)?
A: 0.31

Q: And the solubility (mole fraction) (in 2-butanone, 318.15 K)?
A: 0.406

Q: And the solubility (mole fraction) (in acetone, 278.15 K)?
A: 0.0531

Q: And the solubility (mole fraction) (in acetone, 283.15 K)?
A: 0.0679

Q: And the solubility (mole fraction) (in acetone, 288.15 K)?
A: 0.0839

Q: What about the solubility (mole fraction) (in acetone, 293.15 K) of the same compound?
A: 0.0969

Q: And the solubility (mole fraction) (in acetone, 298.15 K)?
A: 0.12

Q: And the solubility (mole fraction) (in acetone, 303.15 K)?
A: 0.158

Q: What about the solubility (mole fraction) (in acetone, 308.15 K) of the same compound?
A: 0.204

Q: And the solubility (mole fraction) (in acetone, 313.15 K)?
A: 0.263

Q: What about the solubility (mole fraction) (in acetone, 318.15 K) of the same compound?
A: 0.341

Q: What about the solubility (mole fraction) (in acetonitrile, 278.15 K) of the same compound?
A: 0.0204

Q: And the solubility (mole fraction) (in acetonitrile, 283.15 K)?
A: 0.0265

Q: What about the solubility (mole fraction) (in acetonitrile, 288.15 K) of the same compound?
A: 0.0372

Q: What about the solubility (mole fraction) (in acetonitrile, 293.15 K) of the same compound?
A: 0.0498

Q: What about the solubility (mole fraction) (in acetonitrile, 298.15 K) of the same compound?
A: 0.0672

Q: What about the solubility (mole fraction) (in acetonitrile, 303.15 K) of the same compound?
A: 0.102

Q: What about the solubility (mole fraction) (in acetonitrile, 308.15 K) of the same compound?
A: 0.141

Q: What about the solubility (mole fraction) (in acetonitrile, 313.15 K) of the same compound?
A: 0.251

Q: What about the solubility (mole fraction) (in acetonitrile, 318.15 K) of the same compound?
A: 0.473

Q: What about the solubility (mole fraction) (in dimethyl carbonate, 278.15 K) of the same compound?
A: 0.0243

Q: And the solubility (mole fraction) (in dimethyl carbonate, 283.15 K)?
A: 0.0339

Q: And the solubility (mole fraction) (in dimethyl carbonate, 288.15 K)?
A: 0.0537

Q: And the solubility (mole fraction) (in dimethyl carbonate, 293.15 K)?
A: 0.072

Q: And the solubility (mole fraction) (in dimethyl carbonate, 298.15 K)?
A: 0.0994

Q: And the solubility (mole fraction) (in dimethyl carbonate, 303.15 K)?
A: 0.145

Q: What about the solubility (mole fraction) (in dimethyl carbonate, 308.15 K) of the same compound?
A: 0.193

Q: And the solubility (mole fraction) (in dimethyl carbonate, 313.15 K)?
A: 0.25

Q: What about the solubility (mole fraction) (in dimethyl carbonate, 318.15 K) of the same compound?
A: 0.342

Q: What about the solubility (mole fraction) (in ethanol, 278.15 K) of the same compound?
A: 0.00307

Q: What about the solubility (mole fraction) (in ethanol, 283.15 K) of the same compound?
A: 0.00646

Q: And the solubility (mole fraction) (in ethanol, 288.15 K)?
A: 0.00901

Q: And the solubility (mole fraction) (in ethanol, 293.15 K)?
A: 0.0119

Q: And the solubility (mole fraction) (in ethanol, 298.15 K)?
A: 0.0155

Q: What about the solubility (mole fraction) (in ethanol, 303.15 K) of the same compound?
A: 0.0189

Q: And the solubility (mole fraction) (in ethanol, 308.15 K)?
A: 0.0234

Q: And the solubility (mole fraction) (in ethanol, 313.15 K)?
A: 0.031

Q: And the solubility (mole fraction) (in ethanol, 318.15 K)?
A: 0.043

Q: What about the solubility (mole fraction) (in ethyl acetate, 278.15 K) of the same compound?
A: 0.0775

Q: What about the solubility (mole fraction) (in ethyl acetate, 283.15 K) of the same compound?
A: 0.0933

Q: And the solubility (mole fraction) (in ethyl acetate, 288.15 K)?
A: 0.113

Q: And the solubility (mole fraction) (in ethyl acetate, 293.15 K)?
A: 0.145

Q: And the solubility (mole fraction) (in ethyl acetate, 298.15 K)?
A: 0.179

Q: What about the solubility (mole fraction) (in ethyl acetate, 303.15 K) of the same compound?
A: 0.218

Q: What about the solubility (mole fraction) (in ethyl acetate, 308.15 K) of the same compound?
A: 0.264

Q: And the solubility (mole fraction) (in ethyl acetate, 313.15 K)?
A: 0.313

Q: And the solubility (mole fraction) (in ethyl acetate, 318.15 K)?
A: 0.372

Q: What about the solubility (mole fraction) (in ethyl lactate, 278.15 K) of the same compound?
A: 0.0196

Q: What about the solubility (mole fraction) (in ethyl lactate, 283.15 K) of the same compound?
A: 0.0305

Q: And the solubility (mole fraction) (in ethyl lactate, 288.15 K)?
A: 0.0458

Q: What about the solubility (mole fraction) (in ethyl lactate, 293.15 K) of the same compound?
A: 0.0578

Q: And the solubility (mole fraction) (in ethyl lactate, 298.15 K)?
A: 0.0738

Q: And the solubility (mole fraction) (in ethyl lactate, 303.15 K)?
A: 0.0875

Q: And the solubility (mole fraction) (in ethyl lactate, 308.15 K)?
A: 0.109

Q: What about the solubility (mole fraction) (in ethyl lactate, 313.15 K) of the same compound?
A: 0.148

Q: And the solubility (mole fraction) (in ethyl lactate, 318.15 K)?
A: 0.213

Q: And the solubility (mole fraction) (in isobutyl acetate, 278.15 K)?
A: 0.0332

Q: And the solubility (mole fraction) (in isobutyl acetate, 283.15 K)?
A: 0.045

Q: What about the solubility (mole fraction) (in isobutyl acetate, 288.15 K) of the same compound?
A: 0.0655

Q: And the solubility (mole fraction) (in isobutyl acetate, 293.15 K)?
A: 0.0872

Q: And the solubility (mole fraction) (in isobutyl acetate, 298.15 K)?
A: 0.112

Q: What about the solubility (mole fraction) (in isobutyl acetate, 303.15 K) of the same compound?
A: 0.145

Q: And the solubility (mole fraction) (in isobutyl acetate, 308.15 K)?
A: 0.181

Q: What about the solubility (mole fraction) (in isobutyl acetate, 313.15 K) of the same compound?
A: 0.225

Q: What about the solubility (mole fraction) (in isobutyl acetate, 318.15 K) of the same compound?
A: 0.281

Q: And the solubility (mole fraction) (in methanol, 278.15 K)?
A: 0.00207

Q: What about the solubility (mole fraction) (in methanol, 283.15 K) of the same compound?
A: 0.00338

Q: And the solubility (mole fraction) (in methanol, 288.15 K)?
A: 0.00473

Q: And the solubility (mole fraction) (in methanol, 293.15 K)?
A: 0.00666

Q: And the solubility (mole fraction) (in methanol, 298.15 K)?
A: 0.00924

Q: What about the solubility (mole fraction) (in methanol, 303.15 K) of the same compound?
A: 0.0115

Q: And the solubility (mole fraction) (in methanol, 308.15 K)?
A: 0.0158

Q: What about the solubility (mole fraction) (in methanol, 313.15 K) of the same compound?
A: 0.0212

Q: What about the solubility (mole fraction) (in methanol, 318.15 K) of the same compound?
A: 0.0309

Q: What about the solubility (mole fraction) (in methyl acetate, 278.15 K) of the same compound?
A: 0.0544

Q: And the solubility (mole fraction) (in methyl acetate, 283.15 K)?
A: 0.0685

Q: What about the solubility (mole fraction) (in methyl acetate, 288.15 K) of the same compound?
A: 0.0905

Q: And the solubility (mole fraction) (in methyl acetate, 293.15 K)?
A: 0.112

Q: What about the solubility (mole fraction) (in methyl acetate, 298.15 K) of the same compound?
A: 0.145

Q: And the solubility (mole fraction) (in methyl acetate, 303.15 K)?
A: 0.193

Q: What about the solubility (mole fraction) (in methyl acetate, 308.15 K) of the same compound?
A: 0.24

Q: What about the solubility (mole fraction) (in methyl acetate, 313.15 K) of the same compound?
A: 0.29

Q: And the solubility (mole fraction) (in methyl acetate, 318.15 K)?
A: 0.347

Q: What about the solubility (mole fraction) (in n-butyl acetate, 278.15 K) of the same compound?
A: 0.0821

Q: What about the solubility (mole fraction) (in n-butyl acetate, 283.15 K) of the same compound?
A: 0.11

Q: And the solubility (mole fraction) (in n-butyl acetate, 288.15 K)?
A: 0.142

Q: What about the solubility (mole fraction) (in n-butyl acetate, 293.15 K) of the same compound?
A: 0.172

Q: And the solubility (mole fraction) (in n-butyl acetate, 298.15 K)?
A: 0.213

Q: What about the solubility (mole fraction) (in n-butyl acetate, 303.15 K) of the same compound?
A: 0.254

Q: And the solubility (mole fraction) (in n-butyl acetate, 308.15 K)?
A: 0.293

Q: What about the solubility (mole fraction) (in n-butyl acetate, 313.15 K) of the same compound?
A: 0.347

Q: And the solubility (mole fraction) (in n-butyl acetate, 318.15 K)?
A: 0.432

Q: And the solubility (mole fraction) (in n-propyl acetate, 278.15 K)?
A: 0.0586

Q: What about the solubility (mole fraction) (in n-propyl acetate, 283.15 K) of the same compound?
A: 0.0753

Q: What about the solubility (mole fraction) (in n-propyl acetate, 288.15 K) of the same compound?
A: 0.0981

Q: What about the solubility (mole fraction) (in n-propyl acetate, 293.15 K) of the same compound?
A: 0.133

Q: And the solubility (mole fraction) (in n-propyl acetate, 298.15 K)?
A: 0.165

Q: What about the solubility (mole fraction) (in n-propyl acetate, 303.15 K) of the same compound?
A: 0.202

Q: And the solubility (mole fraction) (in n-propyl acetate, 308.15 K)?
A: 0.255

Q: What about the solubility (mole fraction) (in n-propyl acetate, 313.15 K) of the same compound?
A: 0.313

Q: And the solubility (mole fraction) (in n-propyl acetate, 318.15 K)?
A: 0.383
